In BigSolDB 2.1:

COc1ccc(-c2cc(-c3ccc(O)c(OC)c3)c(C#N)c(=O)[nH]2)cc1
solubility (mole fraction)
Settings | in 1,4-dioxane | in chloroform | in ethanol | in ethyl acetate | in methanol | in n-butanol | in n-propanol
298.15 K | 0.00145 | 0.00111 | 0.00069 | 0.00107 | 0.000472 | 0.000297 | 0.000733
303.15 K | 0.00154 | 0.00116 | 0.000724 | 0.00115 | 0.000502 | 0.000344 | 0.000782
308.15 K | 0.00162 | 0.0012 | 0.000759 | 0.00123 | 0.000532 | 0.000389 | 0.000827
313.15 K | 0.00171 | 0.00124 | 0.000802 | 0.00129 | 0.000562 | 0.000443 | 0.000886
318.15 K | 0.0018 | 0.00129 | 0.000846 | 0.00136 | 0.000592 | 0.000497 | 0.000934
323.15 K | 0.00189 | 0.00134 | 0.000899 | 0.00145 | 0.000625 | 0.000565 | 0.00098
328.15 K | 0.00199 | 0.00138 | 0.000953 | 0.00154 | 0.000659 | 0.000633 | 0.00103

COc1cc(-c2cc(-c3ccc(Br)cc3)[nH]c(=O)c2C#N)ccc1O
solubility (mole fraction)
Settings | in 1,4-dioxane | in chloroform | in ethanol | in ethyl acetate | in methanol | in n-butanol | in n-propanol
298.15 K | 0.0014 | 0.00114 | 0.00071 | 0.00109 | 0.000523 | 0.000338 | 0.000757
303.15 K | 0.00148 | 0.00119 | 0.00075 | 0.00116 | 0.000555 | 0.000384 | 0.0008
308.15 K | 0.00155 | 0.00123 | 0.000789 | 0.00124 | 0.000587 | 0.00043 | 0.000843
313.15 K | 0.00163 | 0.00128 | 0.000832 | 0.00132 | 0.000615 | 0.000484 | 0.0009
318.15 K | 0.0017 | 0.00133 | 0.000876 | 0.0014 | 0.000642 | 0.000538 | 0.000951
323.15 K | 0.00177 | 0.00137 | 0.000919 | 0.00148 | 0.000682 | 0.000614 | 0.000997
328.15 K | 0.00184 | 0.00142 | 0.000972 | 0.00156 | 0.000722 | 0.000691 | 0.00105

COc1cc(-c2cc(-c3ccc(Cl)cc3)[nH]c(=O)c2C#N)ccc1O
solubility (mole fraction)
Settings | in 1,4-dioxane | in chloroform | in ethanol | in ethyl acetate | in methanol | in n-butanol | in n-propanol
298.15 K | 0.00149 | 0.00118 | 0.00073 | 0.00123 | 0.000577 | 0.0004 | 0.000791
303.15 K | 0.00156 | 0.00123 | 0.00077 | 0.00132 | 0.000603 | 0.000445 | 0.000836
308.15 K | 0.00163 | 0.00129 | 0.00081 | 0.0014 | 0.000629 | 0.000489 | 0.000882
313.15 K | 0.00172 | 0.00135 | 0.000861 | 0.0015 | 0.000653 | 0.000549 | 0.000929
318.15 K | 0.00181 | 0.00141 | 0.000905 | 0.00159 | 0.000677 | 0.000609 | 0.000976
323.15 K | 0.00189 | 0.00149 | 0.000948 | 0.00168 | 0.000705 | 0.000672 | 0.00102
328.15 K | 0.00197 | 0.00157 | 0.001 | 0.00177 | 0.000732 | 0.000735 | 0.00107

COc1cc(-c2cc(-c3ccc(O)cc3)[nH]c(=O)c2C#N)ccc1O
solubility (mole fraction)
Settings | in 1,4-dioxane | in chloroform | in ethanol | in ethyl acetate | in methanol | in n-butanol | in n-propanol
298.15 K | 0.00153 | 0.00123 | 0.000745 | 0.00106 | 0.000574 | 0.000511 | 0.000847
303.15 K | 0.00161 | 0.0013 | 0.000786 | 0.00111 | 0.000605 | 0.000566 | 0.000882
308.15 K | 0.00169 | 0.00137 | 0.000828 | 0.00117 | 0.000635 | 0.00062 | 0.000927
313.15 K | 0.00178 | 0.00144 | 0.000876 | 0.00122 | 0.000664 | 0.000674 | 0.00098
318.15 K | 0.00187 | 0.00151 | 0.000922 | 0.00127 | 0.000693 | 0.000728 | 0.00104
323.15 K | 0.00195 | 0.00157 | 0.000976 | 0.00134 | 0.000724 | 0.000794 | 0.00111
328.15 K | 0.00203 | 0.00164 | 0.00103 | 0.0014 | 0.000754 | 0.000861 | 0.00116

COc1cc(-c2cc(-c3ccc(F)cc3)[nH]c(=O)c2C#N)ccc1O
solubility (mole fraction)
Settings | in 1,4-dioxane | in chloroform | in ethanol | in ethyl acetate | in methanol | in n-butanol | in n-propanol
298.15 K | 0.00156 | 0.00134 | 0.000762 | 0.00133 | 0.000618 | 0.000531 | 0.000864
303.15 K | 0.00164 | 0.00139 | 0.000809 | 0.00142 | 0.000638 | 0.000589 | 0.000907
308.15 K | 0.00173 | 0.00145 | 0.000848 | 0.0015 | 0.000658 | 0.000648 | 0.00095
313.15 K | 0.00183 | 0.00151 | 0.000897 | 0.0016 | 0.000688 | 0.000707 | 0.00101
318.15 K | 0.00193 | 0.00158 | 0.000946 | 0.00169 | 0.000718 | 0.000767 | 0.00108
323.15 K | 0.00202 | 0.00167 | 0.001 | 0.00178 | 0.000754 | 0.000835 | 0.00113
328.15 K | 0.00211 | 0.00176 | 0.00106 | 0.00187 | 0.00079 | 0.000903 | 0.00119
